These results are taken from patent publication US20220348564A1, “PHENYL-[1,3]DIOXOLO[4,5-C]PYRIDINYL-PHENYL-, PHENYL-[1,3]DIOXOLO[4,5-C]PYRIDINYL-HETEROARYL-, OR PHENYL-(1,3)DIOXO[4,5-C]PYRIDINYL-PIPERIDINYL-METHYL-OXETANYLMETHYL-1H-BENZO[D]IMIDAZOLE-CARBOXYLIC ACID DERIVATIVES AND METHODS OF USING SAME” (Eccogene (Shanghai) Co., Ltd., priority 2021, published 2022).

The EC50 is the concentration that produces a half-maximal response. Higher therefore signals lower potency in that assay.

Read-outs that look alike come from different tables or passages of the source.

Data set [1] can be described thus: Liver microsome stability, rat. The note with it: rat liver microsomes, NADPH, 37° C. The format is in vitro ADME. As for the experimental part: (§1) Compounds of the present application was incubated with human or rat liver microsomes in the presence of NADPH at 37° C. The concentration of compound at pre-incubation and after 30 min incubation was quantified by LC-MS. The percentage of remaining compound was then calculated and indicative of microsome stability of each compound.
In general terms: Liver microsomes are vesicles of endoplasmic reticulum, rich in cytochrome P450 enzymes.

Another data set deals with T1, human GLP-1 (Homo sapiens, UniProt P43220).
T1 construct: expressed in transfected cells
Briefly: h-GLP-1 activity assay (Cisbio cAMP Gs dynamic kit, HTRF). The following applies: HEK293 cells with stable expression of human GLP-1, relative EC50, 10 nM human GLP-1 = 100% response. The format is cell-based. As to the method:
Human GLP-1 agonizing activity was detected in HEK293 cells with stable expression of human GLP-1 by Cisbio cAMP Gs dynamic kit (Catalog #62AM4PEC) according to manufacturer's protocol. Briefly, cells were collected and resuspended in assay buffer containing 0.1% BSA and 0.5 mM of IBMX at concentration to 2.5×10^5 cells/mL. Two μL 5× compound solution and 8 μL cell suspension were added to each well of low-volume 384 white assay plate. After 30 min incubation at 37° C., 5 μL cAMP-d2 working solution and 5 μL anti-cAMP antibody-cryptate were added to each well, and incubate at room temperature for 1 hr. Series dilution of cAMP was used as standard. Human GLP-1 (7-37) was used as positive control and 10 nM human GLP-1 was set as 100% response. HTRF signals were read at 665 and 615 nm with EnVision plate reader and calculated cAMP concentration by intrapolation to the standard curve. The EC50 value of the tested compounds was calculated by fitting the dose response curve using a 4-parameter non-linear regression routine and relative EC50 was presented in Table S.
(Time-resolved FRET reads energy transfer from a long-lived donor to a nearby acceptor.)

Data set [2] can be described thus: Liver microsome stability, human. It is filed as in vitro ADME. The note with it: human liver microsomes, NADPH, 37° C. As to the method:
as §1

The nature of data set [3]: Pharmacokinetics in fasted SD rats (PO and IV). It is filed as in vivo. The following applies: rat, plasma; for clearance: read-out: IV parameters CL; for bioavailability: read-out: PO parameters F (%). As for the experimental part: Compounds of the present application were formulated in 0.50% MC, and administered via oral gavage (PO) at the dosages of 5 or 10 mg per kilogram body weight, or formulated in 5% DMSO:15% Solutol 80% (SBECD), and administered via intravenous injection (IV) at the dosages of 1 mg per kilogram body weight, in fasted SD rats. Plasma samples were collected at 0.25, 0.5, 1, 2, 4, 6, 8, and 24 hours post dosing (PO); and were collected at 0.083, 0.25, 0.5, 1, 2, 4, 6, 8, and 24 hours post dosing (IV). Compound concentration was determined by LC-MS and pharmacokinetics parameters were calculated by WinNonlin 8.2 using Non-Compartmental Analysis model.

[4] abbreviates: IV 1 mg/kg, read-out: IV parameters AUC0-inf.
[5] abbreviates: PO 5 mg/kg, 0.50% MC, read-out: PO parameters AUC0-inf.

T1 sequence (P43220 24-463): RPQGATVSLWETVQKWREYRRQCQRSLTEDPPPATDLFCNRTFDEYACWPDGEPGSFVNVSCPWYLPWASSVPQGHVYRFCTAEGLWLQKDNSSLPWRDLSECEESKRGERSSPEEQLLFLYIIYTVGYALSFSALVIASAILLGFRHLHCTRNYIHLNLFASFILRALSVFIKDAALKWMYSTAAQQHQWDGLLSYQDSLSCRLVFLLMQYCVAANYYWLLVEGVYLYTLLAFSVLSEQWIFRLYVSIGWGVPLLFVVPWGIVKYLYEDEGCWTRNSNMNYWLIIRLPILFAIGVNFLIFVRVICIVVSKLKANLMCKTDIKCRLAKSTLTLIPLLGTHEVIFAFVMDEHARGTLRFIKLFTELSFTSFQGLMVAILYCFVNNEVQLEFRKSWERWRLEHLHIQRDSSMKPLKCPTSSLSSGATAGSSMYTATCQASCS

On to `C[C@]1(c2ccc(Cl)cc2F)Oc2cccc(C3=CC[C@@H](Cc4nc5c(F)cc(C(=O)O)cc5n4C[C@@H]4CCO4)OC3)c2O1` (single isomer, unassigned) [Compound 110], for which the “Rat (% remaining @ 30 min)” value in data set [1] is recorded as >75%. For the same compound, on human GLP-1, the EC50 was < 20 nM. Further, the “Human (% remaining @ 30 min)” value in data set [2] is listed as >75%.
Take `C[C@@]1(c2ccc(Cl)cn2)Oc2cccc(C3=CC[C@H](Cc4nc5ccc(C(=O)O)cc5n4C[C@@H]4CCO4)OC3)c2O1` (single isomer, unassigned) [Compound 78]: in data set [1], the “Rat (% remaining @ 30 min)” value was >75%. Moreover, the EC50 at human GLP-1 is < 20 nM. For the same compound, the “Human (% remaining @ 30 min)” value in data set [2] was >75%.
Regarding `C[C@]1(c2ccc(Cl)cc2F)Oc2cccc(-c3ccc(Cc4nc5ccc(C(=O)O)cc5n4C[C@@H]4CCO4)cc3)c2O1` (single isomer, unassigned) [Compound 19], the figures for the AUC(0-inf) in data set [3] (setting [4]) and in data set [3] (setting [5]) were 3380 ng·h/mL and 4410 ng·h/mL, respectively. For the same compound, the clearance in data set [3] (IV 1 mg/kg) was 5.5 mL/min/kg. The bioavailability in data set [3] (PO 5 mg/kg) turned out to be 26.1%. In addition, on human GLP-1, the EC50 is < 20 nM.
As for `O=C(O)c1ccc2nc(C[C@H]3CC[C@H](c4cccc(OCc5ccc(Cl)cc5F)n4)CO3)n(Cc3cncs3)c2c1` (single isomer, unassigned) [Compound 28], the AUC(0-inf) in data set [3] (setting [4]) was 588 ng·h/mL; in data set [3] (setting [5]), 526 ng·h/mL. In addition, the clearance in data set [3] (IV 1 mg/kg) is 28.8 mL/min/kg. The bioavailability in data set [3] (PO 5 mg/kg) came to 21.7%. Moreover, on human GLP-1, the EC50 is < 20 nM.
`N#Cc1ccc(COc2cccc(N3CCC(Oc4nc5ccc(C(=O)O)cc5n4C[C@@H]4CCO4)CC3)n2)c(F)c1` [Compound 80, (S)-2-((1-(6-((4-cyano-2-fluorobenzyl)oxy)pyridin-2-yl)piperidin-4-yl)oxy)-1-(oxetan-2-ylmethyl)-1H-benzo[d]imidazole-6-carboxylic acid]: at human GLP-1, the EC50 is > 100 nM.
Regarding `O=C(O)c1ccc2nc(Cc3ccc(-c4cccc5c4NC(=O)C(c4ccc(Cl)cc4F)O5)cc3)n(C[C@@H]3CCO3)c2c1` (mixture of isomers) [Compound 42, 2-(4-(2-(4-chloro-2-fluorophenyl)-3-oxo-3,4-dihydro-2H-benzo[b][1,4]oxazin-5-yl)benzyl)-1-(((S)-oxetan-2-yl)methyl)-1H-benzo[d]imidazole-6-carboxylic acid], the EC50 at human GLP-1 is > 100 nM.
The same measure, in the same setting: the value for `C[C@@]1(c2ccc(C3CC3)cn2)Oc2cccc(C3=CCC(Cc4nc5ccc(C(=O)O)cc5n4C[C@@H]4CCO4)OC3)c2O1` (single isomer, unassigned) [Compound 111] was < 20 nM; that for `C[C@@]1(c2ccc(Cl)cn2)Oc2cccc(C3C4CN(Cc5nc6ccc(C(=O)O)cc6n5C[C@@H]5CCO5)CC43)c2O1` (single isomer, unassigned) [Compound 85] was 20 to 100 nM.
For `C[C@]1(c2ccc(Cl)cn2)Oc2cccc(C3=CC[C@H](Cc4nc5c(F)cc(C(=O)O)cc5n4C[C@@H]4CCO4)OC3)c2O1` (single isomer, unassigned) [Compound 118], the “Rat (% remaining @ 30 min)” value in data set [1] is given as >75%. For the same compound, the EC50 at human GLP-1 was < 20 nM. The “Human (% remaining @ 30 min)” value in data set [2] is >75%.
As for `O=C(O)c1ccc2nc(CC3CC(c4cccc(OCc5ccc(Cl)cc5F)n4)CO3)n(C[C@@H]3CCO3)c2c1` (mixture of isomers) [Compound 71, 2-((4-(6-((4-chloro-2-fluorobenzyl)oxy)pyridin-2-yl)tetrahydrofuran-2-yl)methyl)-1-(((S)-oxetan-2-yl)methyl)-1H-benzo[d]imidazole-6-carboxylic acid], the EC50 on human GLP-1 was > 100 nM.
Turning to `C[C@@]1(c2ccc(Cl)cn2)Oc2cccc(C3CCN(Cc4nc5ccc(C(=O)O)cc5n4C[C@@H]4CCO4)CC3(F)F)c2O1` (single isomer, unassigned) [Compound 76], at human GLP-1, the EC50 is < 20 nM.
On the same count and under the same terms, the value for `C[C@@]1(c2ccc(Cl)cc2F)Oc2cccc(C3CCN(Cc4nc5ccc(-c6noc(=O)[nH]6)cc5n4C[C@@H]4CCO4)CC3)c2O1` (single isomer, unassigned) [Compound 37] was < 20 nM.
Still for that read-out and setting: with `N#Cc1ccc(COc2cccc([C@@H]3CC[C@@H](Cc4nc5ccc(C(=O)O)cc5n4C[C@@H]4CCO4)OC3)n2)c(F)c1` (single isomer, unassigned) [Compound 31] the figure was < 20 nM; with `C[C@@]1(c2ccc(Cl)cn2)Oc2cccc(C3CC4CC3CN4Cc3nc4ccc(C(=O)O)cc4n3C[C@@H]3CCO3)c2O1` (single isomer, unassigned) [Compound 74], > 100 nM; with `C[C@]1(c2ccc(Cl)cc2F)Oc2cccc(C3=CC[C@H](Cc4nc5ccc(C(=O)O)cc5n4C[C@@H]4CCO4)OC3)c2O1` (single isomer, unassigned) [Compound 107], > 100 nM.
Take `CC1(c2ccc(C(F)(F)F)cc2F)Oc2cccc(-c3ccc(Cc4nc5ccc(C(=O)O)cc5n4C[C@@H]4CCO4)cc3)c2O1` (mixture of isomers) [Compound 26, 2-(4-(2-(2-fluoro-4-(trifluoromethyl)phenyl)-2-methylbenzo[d][1,3]dioxol-4-yl)benzyl)-1-(((S)-oxetan-2-yl)methyl)-1H-benzo[d]imidazole-6-carboxylic acid]: the EC50 at human GLP-1 is < 20 nM.
As for `C[C@@]1(c2ccc(Cl)cn2)Oc2cccc(N3CC=C(Cc4nc5ccc(C(=O)O)cc5n4C[C@@H]4CCO4)CC3)c2O1` (single isomer, unassigned) [Compound 77], the half-maximal effective concentration (EC50) on human GLP-1 was < 20 nM.
As for `C[C@@]1(c2ccc(Cl)cc2F)Oc2cccc(C3=CC[C@@H](Cc4nc5ccc(C(=O)O)cc5n4C[C@@H]4CCO4)OC3)c2O1` (single isomer, unassigned) [Compound 100], the AUC(0-inf) in data set [3] (setting [4]) was 1760 ng·h/mL; in data set [3] (setting [5]), 3190 ng·h/mL. Further, the clearance in data set [3] (IV 1 mg/kg) was 9.7 mL/min/kg. For the same compound, in data set [3] (PO 5 mg/kg), the bioavailability turned out to be 36.3%. The “Rat (% remaining @ 30 min)” value in data set [1] is on record as >75%. In addition, the EC50 at human GLP-1 was < 20 nM. Moreover, the “Human (% remaining @ 30 min)” value in data set [2] is >75%.
On to `C[C@]1(c2ccc(Cl)cc2F)Oc2cccc(C3=CC[C@@H](Cc4nc5ccc(C(=O)O)nc5n4C[C@@H]4CCO4)OC3)c2O1` (single isomer, unassigned) [Compound 108], for which the “Rat (% remaining @ 30 min)” value in data set [1] is listed as >75%. For the same compound, the half-maximal effective concentration (EC50) at human GLP-1 was < 20 nM. In addition, in data set [2], the “Human (% remaining @ 30 min)” value is given as >75%.
In the case of `CCC1(c2ccc(Cl)cc2F)Oc2cccc(-c3ccc(Cc4nc5ccc(C(=O)O)cc5n4C[C@@H]4CCO4)cc3)c2O1` (mixture of isomers) [Compound 7, 2-(4-(2-(4-chloro-2-fluorophenyl)-2-ethylbenzo[d][1,3]dioxol-4-yl)benzyl)-1-(((S)-oxetan-2-yl)methyl)-1H-benzo[d]imidazole-6-carboxylic acid], the EC50 at human GLP-1 is > 100 nM.
The same measure, in the same setting: the value for `C[C@@]1(c2ccc(Cl)cn2)Oc2cccc([C@H]3CC[C@@H](Cc4nc5ccc(C(=O)O)cc5n4C[C@@H]4CCO4)OC3)c2O1` (single isomer, unassigned) [Compound 102] was > 100 nM.
For the compound `CC1(c2ccc(Cl)cc2F)Oc2cccc(-c3ccn(Cc4nc5ccc(C(=O)O)cc5n4C[C@@H]4CCO4)c(=O)c3)c2O1` (mixture of isomers) [Compound 22, 2-((4-(2-(4-chloro-2-fluorophenyl)-2-methylbenzo[d][1,3]dioxol-4-yl)-2-oxopyridin-1(2H)-yl)methyl)-1-(((S)-oxetan-2-yl)methyl)-1H-benzo[d]imidazole-6-carboxylic acid], the EC50 at human GLP-1 is 20 to 100 nM.
